Measured values from patent publication US11753407B2, “Compounds for treating spinal muscular atrophy” (PTC Therapeutics, Inc., priority 2012, dated 2023).

Key:
[1] = test system: SMN2 minigene mRNA (SMN2-A minigene) in HEK293H cells; assay: SMN2 minigene mRNA splicing RT-qPCR assay in cultured cells; type: cell-based, human; conditions: Homo sapiens, HEK293-H; concentration increasing full length SMN2 mRNA 1.5-fold relative to vehicle-treated cells; HEK293H cells with SMN2-A minigene, 24 hours, 7-point concentration data; read-out: EC1.5x for production of full length SMN2 mRNA
How it was run: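 Potency reflects the concentration that lifts full-length SMN2 minigene mRNA 1.5-fold above vehicle in stably transfected HEK293H cells after 24 h of treatment. Transcript abundance came from RT-qPCR as (1+E)^−Ct, normalized to GAPDH; endogenous SMN1/SMN2 are not detected.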

[2] = test system: Smn protein in SMA patient fibroblast cells (GM03813); assay: Smn protein assay in cultured cells (SMN HTRF); type: cell-based, human; conditions: SMA patient fibroblast cells, 48 hours; for EC1.5x for Smn protein expression: 7-point concentration curve, SMN HTRF, concentration producing 1.5 times Smn protein vs DMSO vehicle control; for maximum fold (Fold) increase of Smn protein: 7-point concentration data, fold relative to vehicle control
How it was run: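 Smn protein abundance in treated SMA fibroblasts was measured by HTRF after 48 h compound exposure. The reported EC1.5× is the concentration producing 1.5 times vehicle Smn levels.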

Row | Structure (SMILES) | EC (1.5-fold increase) [1] [µM] | EC1.5x for Smn protein expression [2] | maximum fold (Fold) increase of Smn protein [2] | melting point [°C]
1 | CCCc1nc(C)cn2nc(-c3cc(=O)n4cc(N5C[C@H]6CNC[C@H]6C5)ccc4n3)cc12 [Compound 761, 7-[(3aR,6aS)-hexahydropyrrolo[3,4-c]pyrrol-2(1H)-yl]-2-(6-methyl-4-propylpyrazolo[1,5-a]pyrazin-2-yl)-4H-pyrido[1,2-a]pyrimidin-4-one] | < 0.1 | **** (an EC1.5x≤0.3 μM is indicated by four stars (****)) | ***** (a fold increase >1.65 is indicated by five stars (*****)) | 212 to 214
2 | CCCc1nc(C)cn2nc(-c3cc(=O)n4cc(C5=CCNCC5)ccc4n3)cc12 [Compound 762, 2-(6-methyl-4-propylpyrazolo[1,5-a]pyrazin-2-yl)-7-(1,2,3,6-tetrahydropyridin-4-yl)-4H-pyrido[1,2-a]pyrimidin-4-one] | < 0.1 | **** (an EC1.5x≤0.3 μM is indicated by four stars (****)) | ***** (a fold increase >1.65 is indicated by five stars (*****)) | 257 to 260
3 | CCc1nc(C)cn2nc(-c3cc(=O)n4cc(C5=CCNCC5)ccc4n3)cc12 [Compound 763, 2-(4-ethyl-6-methylpyrazolo[1,5-a]pyrazin-2-yl)-7-(1,2,3,6-tetrahydropyridin-4-yl)-4H-pyrido[1,2-a]pyrimidin-4-one] | < 0.1 | **** (an EC1.5x≤0.3 μM is indicated by four stars (****)) | ***** (a fold increase >1.65 is indicated by five stars (*****)) | 287 to 289
4 | Cc1cn2nc(-c3cc(=O)n4cc(N5CC(N6CCCCC6)C5)ccc4n3)cc2c(C)n1 [Compound 765, 2-(4,6-dimethylpyrazolo[1,5-a]pyrazin-2-yl)-7-[3-(piperidin-1-yl)azetidin-1-yl]-4H-pyrido[1,2-a]pyrimidin-4-one] | 1 to 3 | ** (an EC1.5× between >1 μM and ≤3 μM is indicated by two stars (**)) | **** (a fold increase between >1.5 and ≤1.65 is indicated by four stars (****)) | 220 to 223
5 | CCCc1nc(C)cn2nc(-c3cc(=O)n4cc(C5CCNCC5)ccc4n3)cc12 [Compound 766, 2-(6-methyl-4-propylpyrazolo[1,5-a]pyrazin-2-yl)-7-(piperidin-4-yl)-4H-pyrido[1,2-a]pyrimidin-4-one] | < 0.1 | **** (an EC1.5x≤0.3 μM is indicated by four stars (****)) | ***** (a fold increase >1.65 is indicated by five stars (*****)) | 228 to 230
6 | Cc1cn2nc(-c3cc(=O)n4cc(N5CCC6(CCNC6)C5)ccc4n3)cc2c(C)n1 (stereo not shown) [Compound 767, 7-(2,7-diazaspiro[4.4]non-2-yl)-2-(4,6-dimethylpyrazolo[1,5-a]pyrazin-2-yl)-4H-pyrido[1,2-a]pyrimidin-4-one] | < 0.1 | **** (an EC1.5x≤0.3 μM is indicated by four stars (****)) | ***** (a fold increase >1.65 is indicated by five stars (*****)) | 208 to 210
7 | Cc1cc(-c2cc(=O)n3cc(N4CCN(C)CC4)ccc3n2)cc2cn(C)nc12 [Compound 768, 2-(2,7-dimethyl-2H-indazol-5-yl)-7-(4-methylpiperazin-1-yl)-4H-pyrido[1,2-a]pyrimidin-4-one] | < 0.1 | **** (an EC1.5x≤0.3 μM is indicated by four stars (****)) | ***** (a fold increase >1.65 is indicated by five stars (*****)) | 216 to 218
8 | Cc1cn2nc(-c3cc(=O)n4cc(N5CC[C@@H](CN(C)C)C5)ccc4n3)cc2c(C)n1 [Compound 770, 7-{(3S)-3-[(dimethylamino)methyl]pyrrolidin-1-yl}-2-(4,6-dimethylpyrazolo[1,5-a]pyrazin-2-yl)-4H-pyrido[1,2-a]pyrimidin-4-one] | < 0.1 | *** (an EC1.5× between >0.3 μM and ≤1 μM is indicated by three stars (***)) | **** (a fold increase between >1.5 and ≤1.65 is indicated by four stars (****)) | 239 to 241
9 | CCc1nc(C)cn2nc(-c3cc(=O)n4cc(C5CCNCC5)cc(C)c4n3)cc12 [Compound 771, 2-(4-ethyl-6-methylpyrazolo[1,5-a]pyrazin-2-yl)-9-methyl-7-(piperidin-4-yl)-4H-pyrido[1,2-a]pyrimidin-4-one] | < 0.1 | **** (an EC1.5x≤0.3 μM is indicated by four stars (****)) | ***** (a fold increase >1.65 is indicated by five stars (*****)) | 241 to 249
10 | Cc1cc(C2CCNCC2)cn2c(=O)cc(-c3ccc4c(cnn4C)c3)nc12 [Compound 772, 9-methyl-2-(1-methyl-1H-indazol-5-yl)-7-(piperidin-4-yl)-4H-pyrido[1,2-a]pyrimidin-4-one] | < 0.1 | **** (an EC1.5x≤0.3 μM is indicated by four stars (****)) | ***** (a fold increase >1.65 is indicated by five stars (*****)) | 212 to 217
11 | Cc1cc(-c2cc(=O)n3cc(C4CCNCC4)ccc3n2)cc2cnn(C)c12 [Compound 775, 2-(1,7-dimethyl-1H-indazol-5-yl)-7-(piperidin-4-yl)-4H-pyrido[1,2-a]pyrimidin-4-one] | 0.3 to 1 |  | *** (a fold increase between >1.35 and ≤1.5 is indicated by three stars (***)) | 220 to 222
12 | Cc1cc(-c2cc(=O)n3cc(N4CCNCC4)ccc3n2)cc2cnn(C)c12 [Compound 776, 2-(1,7-dimethyl-1H-indazol-5-yl)-7-(piperazin-1-yl)-4H-pyrido[1,2-a]pyrimidin-4-one] | 1 to 3 |  | ** (a fold increase between >1.2 and ≤1.35 is indicated by two stars (**)) | 160 to 163
13 | Cc1cc(-c2cc(=O)n3cc(N4CCN[C@@H](C)C4)ccc3n2)cc2cnn(C)c12 [Compound 777, 2-(1,7-dimethyl-1H-indazol-5-yl)-7-[(3S)-3-methylpiperazin-1-yl]-4H-pyrido[1,2-a]pyrimidin-4-one] | 1 to 3 | ** (an EC1.5× between >1 μM and ≤3 μM is indicated by two stars (**)) | *** (a fold increase between >1.35 and ≤1.5 is indicated by three stars (***)) | 248 to 250
14 | CCN(CC)C[C@@H]1CCN(c2ccc3nc(-c4cc5c(C)nc(C)cn5n4)cc(=O)n3c2)C1 [Compound 778, 7-{(3S)-3-[(diethylamino)methyl]pyrrolidin-1-yl}-2-(4,6-dimethylpyrazolo[1,5-a]pyrazin-2-yl)-4H-pyrido[1,2-a]pyrimidin-4-one] | < 0.1 | *** (an EC1.5× between >0.3 μM and ≤1 μM is indicated by three stars (***)) | ***** (a fold increase >1.65 is indicated by five stars (*****)) | 194 to 196
15 | Cc1cn2nc(-c3cc(=O)n4cc(N5CC(CN(C)C)C5)ccc4n3)cc2c(C)n1 [Compound 780, 7-{3-[(dimethylamino)methyl]azetidin-1-yl}-2-(4,6-dimethylpyrazolo[1,5-a]pyrazin-2-yl)-4H-pyrido[1,2-a]pyrimidin-4-one] | < 0.1 | **** (an EC1.5x≤0.3 μM is indicated by four stars (****)) | ***** (a fold increase >1.65 is indicated by five stars (*****)) | 228 to 230
16 | CCN(CC)CC1CN(c2ccc3nc(-c4cc5c(C)nc(C)cn5n4)cc(=O)n3c2)C1 [Compound 781, 7-{3-[(diethylamino)methyl]azetidin-1-yl}-2-(4,6-dimethylpyrazolo[1,5-a]pyrazin-2-yl)-4H-pyrido[1,2-a]pyrimidin-4-one] | < 0.1 | **** (an EC1.5x≤0.3 μM is indicated by four stars (****)) | ***** (a fold increase >1.65 is indicated by five stars (*****)) | 205 to 207
17 | CCc1nc(C)cn2cc(-c3cc(=O)n4cc(N5CCN6CCC[C@H]6C5)ccc4n3)cc12 [Compound 782, 2-(1-ethyl-3-methylpyrrolo[1,2-a]pyrazin-7-yl)-7-[(8aS)-hexahydropyrrolo[1,2-a]pyrazin-2(1H)-yl]-4H-pyrido[1,2-a]pyrimidin-4-one] | < 0.1 | **** (an EC1.5x≤0.3 μM is indicated by four stars (****)) | ***** (a fold increase >1.65 is indicated by five stars (*****)) | 220 to 222
18 | CCc1nc(C)cn2nc(-c3cc(=O)n4cc(N5CCN[C@H](C)C5)cc(C)c4n3)cc12 [Compound 783, 2-(4-ethyl-6-methylpyrazolo[1,5-a]pyrazin-2-yl)-9-methyl-7-[(3R)-3-methylpiperazin-1-yl]-4H-pyrido[1,2-a]pyrimidin-4-one] | < 0.1 | **** (an EC1.5x≤0.3 μM is indicated by four stars (****)) | ***** (a fold increase >1.65 is indicated by five stars (*****)) | 223 to 233
